The values that follow come from patent publication US6635771B2, “N-benzhydryl indole compounds” (Wyeth, priority 2001, dated 2003).

This experiment deals with T1, cPLA2 (Homo sapiens, UniProt P47712).
T1 sequence (P47712 1-749): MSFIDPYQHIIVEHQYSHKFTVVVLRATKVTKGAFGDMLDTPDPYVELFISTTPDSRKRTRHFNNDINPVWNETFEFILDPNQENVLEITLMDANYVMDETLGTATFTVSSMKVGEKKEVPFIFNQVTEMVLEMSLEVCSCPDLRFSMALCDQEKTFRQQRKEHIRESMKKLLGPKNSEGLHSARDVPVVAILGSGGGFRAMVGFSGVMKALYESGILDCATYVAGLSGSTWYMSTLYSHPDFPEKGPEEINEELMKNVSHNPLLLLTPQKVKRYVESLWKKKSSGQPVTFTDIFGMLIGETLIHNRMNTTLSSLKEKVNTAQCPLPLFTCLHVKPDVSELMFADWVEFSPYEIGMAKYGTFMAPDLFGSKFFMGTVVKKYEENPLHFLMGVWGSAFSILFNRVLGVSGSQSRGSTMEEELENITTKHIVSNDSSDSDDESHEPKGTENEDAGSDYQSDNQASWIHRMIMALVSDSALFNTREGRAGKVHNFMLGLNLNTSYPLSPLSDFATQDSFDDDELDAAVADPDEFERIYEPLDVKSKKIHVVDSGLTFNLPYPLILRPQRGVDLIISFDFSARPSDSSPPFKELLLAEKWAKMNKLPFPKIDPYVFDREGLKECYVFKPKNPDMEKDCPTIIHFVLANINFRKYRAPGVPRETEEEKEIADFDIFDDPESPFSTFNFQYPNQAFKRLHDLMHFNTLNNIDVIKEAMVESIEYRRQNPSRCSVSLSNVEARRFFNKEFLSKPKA
Description: Coumarine Assay. As to conditions: 60 μM 7-hydroxycoumarinyl 6-heptenoate substrate, 4 μg cPLA2, pH 7.5, fluorescence ex 360 nm / em 460 nm; read-out: Coumarin IC50. The format is biochemical.

With `O=C(O)c1ccc(OCCc2c(CCNS(=O)(=O)Cc3cccc([N+](=O)[O-])c3)n(C(c3ccccc3)c3ccccc3)c3ccc(Cl)cc23)cc1` [Example 55, 4-{2-[1-benzhydryl-5-chloro-2-(2-{[(3-nitrobenzyl)sulfonyl]amino}ethyl)-1H-indol-3-yl]ethoxy}benzoic acid], the IC50 amounted to 260 nM.

Take `O=C(O)CCc1ccc(S(=O)(=O)CCc2c(CCNS(=O)(=O)Cc3ccccc3Cl)n(C(c3ccccc3)c3ccccc3)c3ccc(Cl)cc23)cc1` [Example 133, 3-[4-({2-[1-benzhydryl-5-chloro-2-(2-{[(2-chlorobenzyl)sulfonyl]amino}ethyl)-1H-indol-3-yl]ethyl}sulfonyl)phenyl]propanoic acid]: the IC50 worked out at 90 nM. To `O=C(O)c1ccc(CCCc2c(CCNS(=O)(=O)Cc3ccc(F)cc3)n(C(c3ccccc3)c3ccccc3)c3ccc(Cl)cc23)cc1` [Example 57] belongs 280 nM; to `O=C(O)c1ccc(OCCc2c(CCNS(=O)(=O)CCn3cnnn3)n(C(c3ccccc3)c3ccccc3)c3ccc(Cl)cc23)cc1` [Example 104, 4-(2-{1-benzhydryl-5-chloro-2-[2-(2-tetrazol-1-yl-ethanesulfonylamino)-ethyl]-1H-indol-3-yl}ethoxy)benzoic acid], 1100 nM.

Regarding `O=C(O)c1ccc(OCCc2c(CCNS(=O)(=O)Cc3cc(C(F)(F)F)cc(C(F)(F)F)c3)n(C(c3ccccc3)c3ccccc3)c3ccc(Cl)cc23)cc1` [Example 24, 4-(2-{1-benzhydryl-2-[2-({[3,5-bis(trifluoromethyl)benzyl]sulfonyl}amino)ethyl]-5-chloro-1H-indol-3-yl}ethoxy)benzoic acid], the IC50 was 340 nM. To `O=C(O)c1ccc(S(=O)(=O)CCc2c(CCNS(=O)(=O)Cc3ccccc3Cl)n(C(c3ccccc3)c3ccccc3)c3ccc(Cl)cc23)cc1` [Example 136] belongs 180 nM; to `O=C(O)c1ccc(S(=O)(=O)CCc2c(CCNS(=O)(=O)Cc3ccccc3)n(C(c3ccccc3)c3ccccc3)c3ccc(Cl)cc23)cc1` [Example 135], 200 nM. To `Cc1ccccc1SCS(=O)(=O)NCCc1c(CCOc2ccc(C(=O)O)cc2)c2cc(Cl)ccc2n1C(c1ccccc1)c1ccccc1` [Example 118, 4-{2-[1-benzhydryl-5-chloro-2-(2-o-tolylsulfanylmethanesulfonylamino-ethyl)-1H-indol-3-yl]-ethoxy}-benzoic acid] belongs 400 nM; to `O=C(O)c1ccc(OCCc2c(CCNS(=O)(=O)Cc3ccccc3[N+](=O)[O-])n(C(c3ccccc3)c3ccccc3)c3ccc(Cl)cc23)cc1` [Example 9, 4-{2-[1-Benzhydryl-5-chloro-2-(2-[({2-nitrobenzyl}-sulfonyl)amino]ethyl}-1H-indol-3-yl)ethoxy]benzoic acid], 700 nM; to `CC1CCCN1CCS(=O)(=O)NCCc1c(CCOc2ccc(C(=O)O)cc2)c2cc(Cl)ccc2n1C(c1ccccc1)c1ccccc1` (stereo not shown) [Example 113, 4-[2-(1-Benzhydryl-5-chloro-2-{2-[2-(2-methyl-pyrrolidin-1-yl)-ethanesulfonylamino]-ethyl}-1H-indol-3-yl)-ethoxy]-benzoic acid], 1300 nM. On to `O=C(O)c1ccc(OCCc2c(CCNS(=O)(=O)c3cc(Cl)cc(Cl)c3)n(C(c3ccccc3)c3ccccc3)c3ccc(Cl)cc23)cc1` [Example 27, 4-{2-[1-benzhydryl-5-chloro-2-(2-{[(3,5-dichlorophenyl)sulfonyl]amino}ethyl)-1H-indol-3-yl]ethoxy}benzoic acid], for which the IC50 came out at 800 nM. Regarding `O=C(O)c1ccc(OCCc2c(CCNS(=O)(=O)Cc3ccc(Cl)nc3)n(C(c3ccccc3)c3ccccc3)c3ccc(Cl)cc23)cc1` [Example 75, 4-(2-{1-benzhydryl-5-chloro-2-[2-({[(6-chloro-3-pyridinyl)methyl]sulfonyl}amino)ethyl]-1H-indol-3-yl}ethoxy)benzoic acid], the half-maximal inhibitory concentration (IC50) stood at 400 nM.

In the case of `O=C(O)c1ccc(OCCc2c(CCNS(=O)(=O)CSc3ccccc3Cl)n(C(c3ccccc3)c3ccccc3)c3ccc(Cl)cc23)cc1` [Example 119], the IC50 was found to be 400 nM. As for `NS(=O)(=O)c1ccc(CS(=O)(=O)NCCc2c(CCOc3ccc(C(=O)O)cc3)c3cc(Cl)ccc3n2C(c2ccccc2)c2ccccc2)cc1` [Example 39, 4-(2-{2-[2-({[4-(Aminosulfonyl)benzyl]sulfonyl}amino)ethyl]-1-benzhydryl-5-chloro-1H-indol-3-yl}ethoxy)benzoic acid], the IC50 is 320 nM.

For the compound `O=C(O)c1ccc(OCCc2c(CCNS(=O)(=O)Cc3ccc4ccccc4c3)n(C(c3ccccc3)c3ccccc3)c3ccc(Cl)cc23)cc1` [Example 19, 4-{2-[1-benzhydryl-5-chloro-2-(2{[(2-naphthylmethyl)sulfonyl]amino}ethyl)-1H-indol-3-yl]ethoxy}benzoic acid], the IC50 was found to be 310 nM.

For the compound `O=C(O)c1ccc(OCCc2c(CCNS(=O)(=O)CCN3CCC4(CC3)OCCO4)n(C(c3ccccc3)c3ccccc3)c3ccc(Cl)cc23)cc1` [Example 90, 4-(2-{1-benzhydryl-5-chloro-2-[2-({[2-(1,4-dioxa-8-azaspiro[4.5]dec-8-yl)ethyl]sulfonyl}amino)ethyl]-1H-indol-3-yl}ethoxy)benzoic acid], the half-maximal inhibitory concentration (IC50) amounted to 650 nM. To `O=C(O)c1ccc(OCCc2c(CCNS(=O)(=O)CCN3CCC(O)CC3)n(C(c3ccccc3)c3ccccc3)c3ccc(Cl)cc23)cc1` [Example 123, 4-[2-(1-Benzhydryl-5-chloro-2-{2-[2-(4-hydroxy-piperidin-1-yl)-ethanesulfonylamino]-ethyl}-1H-indol-3-yl)-ethoxy]-benzoic acid] belongs 1700 nM; to `O=C(O)c1ccc(CCCc2c(CCNS(=O)(=O)Cc3cc(Cl)ccc3Cl)n(C(c3ccccc3)c3ccccc3)c3ccc(Cl)cc23)cc1` [Example 67, 4-{3-[1-benzhydryl-5-chloro-2-(2-{[(2,5-dichlorobenzyl)sulfonyl]amino}ethyl)-1H-indol-3-yl]propyl}benzoic acid], 140 nM. With `O=C(O)c1ccc(OCCc2c(CCNS(=O)(=O)Cc3cccc(C(=O)O)c3)n(C(c3ccccc3)c3ccccc3)c3ccc(Cl)cc23)cc1` [Example 20, 3-({[(2-{1-benzhydryl-3-[2-(4-carboxyphenoxy)ethyl]-5-chloro-1H-indol-2-yl}ethyl)amino]sulfonyl}methyl)benzoic acid], the IC50 worked out at 1100 nM. In the case of `O=C(O)c1ccc(OCCc2c(CCNS(=O)(=O)c3ccc(Cl)c(Cl)c3)n(C(c3ccccc3)c3ccccc3)c3ccc(Cl)cc23)cc1` [Example 28, 4-{2-[1-benzhydryl-5-chloro-2-(2{[(3,4-dichlorophenyl)sulfonyl]amino}ethyl)-1H-indol-3-yl]ethoxy}benzoic acid], the IC50 amounted to 950 nM. To `Cc1cc(C)n(CCS(=O)(=O)NCCc2c(CCOc3ccc(C(=O)O)cc3)c3cc(Cl)ccc3n2C(c2ccccc2)c2ccccc2)n1` [Example 93, 4-(2-{1-benzhydryl-5-chloro-2-[2-({[2-(3,5-dimethyl-1H-pyrazol-1-yl)ethyl]sulfonyl}amino)ethyl]-1H-indol-3-yl}ethoxy)benzoic acid] belongs 560 nM. To `C[C@@H]1CCC[C@H](C)N1CCS(=O)(=O)NCCc1c(CCOc2ccc(C(=O)O)cc2)c2cc(Cl)ccc2n1C(c1ccccc1)c1ccccc1` [Example 96, 4-[2-(1-benzhydryl-5-chloro-2-{2-[({2-[(2R,6S)-2,6-dimethyl-1-piperidinyl]ethyl}sulfonyl)amino]ethyl}-1H-indol-3-yl)ethoxy]benzoic acid] belongs 950 nM.
